Among the test systems are SN12C; OVCAR-5; NCI-H226; HCT-116; SK-OV-3; HOP-92; K562; CAKI-1; CCRF-CEM; LOX IMVI; SK-MEL-2; NCI-H522; SF-295; UACC-257; OVCAR-4; HCC 2998; UO-31; RXF 393; COLO 205; OVCAR-3.
Test in all cases: NCI anticancer screen, dose series, 48 h

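Interpolation was linear, between the two tested concentrations surrounding the appropriate level; five concentrations were tested over 48 hours in 96-well plates. The concentration for 50% growth inhibition is given as GI50.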 Activity calls are given as the source filed them. Rule as the data show it: active = GI50 up to about 1.1 µM and inactive = higher.

With `N#C[C@H](OC1OC(COC2OC(CO)C(O)C(O)C2O)C(O)C(O)C1O)c1ccccc1` (stereo not given in full), the GI50 was > 250 µM (inactive) with SN12C; > 250 µM (inactive) in the experiment on OVCAR-5; 191 µM (inactive) with NCI-H226; > 250 µM (inactive) in the experiment with HCT-116; > 250 µM (inactive) with SK-OV-3; 2.5 µM (inactive) in the experiment with HOP-92. In addition, the GI50 was > 250 µM (inactive) with K562; > 250 µM (inactive) in the experiment with CAKI-1; > 250 µM (inactive) with CCRF-CEM; > 195 µM (inactive) in the experiment on LOX IMVI; > 250 µM (inactive) in the experiment with SK-MEL-2; > 200 µM (inactive) in the experiment with NCI-H522. The GI50 is 203 µM (inactive) with SF-295; 234 µM (inactive) with UACC-257; > 250 µM (inactive) in the experiment with OVCAR-4; > 250 µM (inactive) in the experiment with HCC 2998; > 250 µM (inactive) in the experiment with UO-31; > 250 µM (inactive) with RXF 393. Also, the GI50 in the experiment on COLO 205 and in the experiment with OVCAR-3 was > 250 µM (inactive) throughout.

In the case of `COc1ccc(-c2nc3ccc([N+](=O)[O-])cc3c(=O)[nH]2)cc1`, the GI50 was 66.4 µM (inactive) in the experiment on SN12C; > 100 µM (inactive) in the experiment with OVCAR-5; 23.2 µM (inactive) in the experiment on NCI-H226; 27.4 µM (inactive) with HCT-116; 13.6 µM (inactive) with SK-OV-3; 22 µM (inactive) with HOP-92. Besides, the GI50 in the experiment with K562 was > 100 µM (inactive); with CAKI-1, 28.8 µM (inactive); with CCRF-CEM it was > 100 µM (inactive); with LOX IMVI, 30.5 µM (inactive); in the experiment with SK-MEL-2, 30.3 µM (inactive); in the experiment with NCI-H522, 26.9 µM (inactive). Also, the GI50 is 23.8 µM (inactive) with SF-295; > 96.2 µM (inactive) in the experiment with UACC-257; 12.9 µM (inactive) with OVCAR-4; > 100 µM (inactive) with HCC 2998; 61.9 µM (inactive) in the experiment on UO-31; 26.4 µM (inactive) in the experiment with RXF 393. For the same compound, the GI50 in the experiment on COLO 205 was > 100 µM (inactive); in the experiment with OVCAR-3, 28.4 µM (inactive).

`SC1=Nc2ccccc2-c2nc(-c3ccccc3)cc(-c3ccc(Br)cc3)c2C1`: the GI50 was 0.791 µM (active) in the experiment with SN12C; 2.81 µM (inactive) with OVCAR-5; 3.18 µM (inactive) in the experiment with NCI-H226; 1.64 µM (inactive) in the experiment on HCT-116; 0.897 µM (active) in the experiment on SK-OV-3; 1.95 µM (inactive) in the experiment with HOP-92. The GI50 was 2.9 µM (inactive) in the experiment with K562; 1.5 µM (inactive) with CAKI-1; 1.88 µM (inactive) with CCRF-CEM; 2.99 µM (inactive) in the experiment on LOX IMVI; 6.47 µM (inactive) in the experiment with SK-MEL-2; 1.68 µM (inactive) in the experiment on NCI-H522. Moreover, the GI50 in the experiment on SF-295 was 1.89 µM (inactive); in the experiment with UACC-257, 3.15 µM (inactive); in the experiment with OVCAR-4, 0.433 µM (active); in the experiment on HCC 2998, 3.17 µM (inactive); in the experiment with UO-31, 1.57 µM (inactive); with RXF 393 it was 1.7 µM (inactive). The GI50 was 2.66 µM (inactive) in the experiment on COLO 205 and 2.29 µM (inactive) in the experiment with OVCAR-3.

Regarding `Cc1ccc(NC(=O)OCC(COc2ccc(Cl)cc2)OC(=O)Nc2ccc(C)cc2)cc1` (stereo not given), the GI50 in the experiment on SN12C was 20.4 µM (inactive); with OVCAR-5, 27.9 µM (inactive); in the experiment with NCI-H226, 16.5 µM (inactive); in the experiment with HCT-116 it was 20.7 µM (inactive); in the experiment with SK-OV-3, 58.6 µM (inactive); with HOP-92, 11.1 µM (inactive). Also, the GI50 in the experiment with K562 was 9.27 µM (inactive); with CAKI-1 it was 15.7 µM (inactive); in the experiment with CCRF-CEM, 9.93 µM (inactive); in the experiment on LOX IMVI, 21.2 µM (inactive); in the experiment on SK-MEL-2, 15 µM (inactive); in the experiment with NCI-H522 it was 29.8 µM (inactive). Besides, the GI50 was 23.5 µM (inactive) in the experiment on SF-295; 21.9 µM (inactive) in the experiment on UACC-257; 13.7 µM (inactive) with OVCAR-4; 39 µM (inactive) in the experiment with HCC 2998; 11.9 µM (inactive) in the experiment on UO-31; 12.9 µM (inactive) with RXF 393. Moreover, the GI50 in the experiment on COLO 205 is 39.6 µM (inactive); in the experiment with OVCAR-3, 14.6 µM (inactive).

As to `O=C1CCC23CC(C=CC=C12)n1c(=O)n(-c2ccccc2)c(=O)n13` (stereo not given), the GI50 was > 100 µM (inactive) in the experiment on SN12C; > 100 µM (inactive) with OVCAR-5; > 63.4 µM (inactive) with NCI-H226; > 71.9 µM (inactive) with HCT-116; > 100 µM (inactive) in the experiment with SK-OV-3; > 100 µM (inactive) in the experiment on HOP-92. For the same compound, the GI50 in the experiment on K562 is 39.8 µM (inactive); in the experiment with CAKI-1, > 50.6 µM (inactive); in the experiment on CCRF-CEM it was 42.4 µM (inactive); with LOX IMVI it was > 72.1 µM (inactive); in the experiment with SK-MEL-2, > 100 µM (inactive); with NCI-H522 it was > 100 µM (inactive). In addition, the GI50 in the experiment on SF-295 is > 100 µM (inactive); in the experiment on UACC-257, > 100 µM (inactive); with OVCAR-4, > 100 µM (inactive); in the experiment on HCC 2998, > 100 µM (inactive); in the experiment on UO-31 it was > 64.4 µM (inactive); with RXF 393 it was 99.3 µM (inactive). Moreover, the GI50 with COLO 205 and in the experiment on OVCAR-3 was > 100 µM (inactive) throughout.

On to `Cc1cc2c(cc1C)[n+]([O-])c(C#N)c(Cl)[n+]2[O-]`, for which the GI50 in the experiment on SN12C is 13.6 µM (inactive); in the experiment with OVCAR-5, 12.7 µM (inactive); in the experiment on NCI-H226, 21.7 µM (inactive); in the experiment with HCT-116 it was 14.1 µM (inactive); in the experiment with SK-OV-3, 16.4 µM (inactive); with HOP-92, 16.2 µM (inactive). In addition, the GI50 in the experiment with K562 was 10.3 µM (inactive); in the experiment with CAKI-1, 6.46 µM (inactive); in the experiment on CCRF-CEM it was 4.92 µM (inactive); in the experiment with LOX IMVI, 12.1 µM (inactive); with SK-MEL-2, 17.4 µM (inactive); with NCI-H522 it was 11 µM (inactive). Also, the GI50 is 23.7 µM (inactive) in the experiment on SF-295; 13.8 µM (inactive) in the experiment on UACC-257; 13.9 µM (inactive) in the experiment on OVCAR-4; 11 µM (inactive) in the experiment with HCC 2998; 12 µM (inactive) in the experiment with UO-31; 13.2 µM (inactive) with RXF 393. Besides, the results for the GI50 in the experiment on COLO 205 and in the experiment with OVCAR-3 were 6.92 µM (inactive) and 7.78 µM (inactive), respectively.

Source of the values: ChEMBL document CHEMBL1201862, “PubChem BioAssay data set” (2004).
